From patent US20120288544A1, “NOVEL RETIGABINE COMPOSITION” (GLAXO GROUP LIMITED, priority 2010, published 2012)

Assay: pH dependent solubility of retigabine
Conditions: around pH 2 (stomach) versus around pH 7 (lower intestine)

For `CCOC(=O)Nc1ccc(NCc2ccc(F)cc2)cc1N` [Retigabine], the pH dependent solubility was “more soluble in the acidic conditions of the stomach (around pH 2) than in the near neutral conditions of the lower intestine (around pH 7)”.
